From ChEMBL document CHEMBL5244272 (Eur J Med Chem, 2021)

What was measured:
[1] = tested on: Plasmodium falciparum; assay: Potency index, ratio of artemisinin IC50 to test compound IC50 for Plasmodium falciparum W2; assay type: functional
[2] = tested on: Plasmodium falciparum; assay: Potency index, ratio of artemisinin IC50 to test compound IC50 for Plasmodium falciparum D6; assay type: functional
[3] = tested on: Plasmodium falciparum; assay: Antimalarial activity against Plasmodium falciparum RKL9; assay type: functional, organism-based
[4] = tested on: Plasmodium yoelii; assay: Antimalarial activity against Plasmodium yoelii infected in mouse; assay type: functional
[5] = tested on: Plasmodium falciparum; assay: Antimalarial activity against Plasmodium falciparum 3D7; assay type: functional, organism-based
[6] = tested on: Plasmodium falciparum; assay: Antimalarial activity against Plasmodium falciparum Dd2; assay type: functional, organism-based
[7] = tested on: Plasmodium falciparum; assay: Antimalarial activity against Plasmodium falciparum NF54; assay type: functional, organism-based
[8] = tested on: Plasmodium falciparum; assay: Antimalarial activity against late blood stage Plasmodium falciparum NF54 gametocytes; assay type: functional, organism-based
[9] = tested on: Plasmodium falciparum; assay: Antimalarial activity against Plasmodium falciparum K1; assay type: functional, organism-based
[10] = tested on: Plasmodium berghei; assay: Antimalarial activity against Plasmodium berghei ANKA infected in po dosed mouse; assay type: functional
[11] = tested on: Plasmodium berghei; assay: Antimalarial activity against Plasmodium berghei infected in mouse; assay type: functional; settings: Plasmodium berghei
[12] = tested on: Plasmodium falciparum; assay: Antimalarial activity against chloroquine-resistant Plasmodium falciparum K1; assay type: functional, organism-based
[13] = tested on: Plasmodium falciparum; assay: Antimalarial activity against ART-resistant Plasmodium falciparum harboring R539T mutant assessed as increase in survival at 700 nM; assay type: functional
[14] = tested on: Plasmodium berghei; assay: Antimalarial activity against Plasmodium berghei infected in po dosed mouse; assay type: functional
[15] = tested on: Plasmodium berghei; assay: Antimalarial activity against Plasmodium berghei K173 infected in mouse; assay type: functional
[16] = tested on: Plasmodium falciparum; assay: Antimalarial activity against chloroquine-sensitive Plasmodium falciparum NF54; assay type: functional, organism-based
[17] = tested on: Plasmodium falciparum; assay: Antimalarial activity against Plasmodium falciparum W2; assay type: functional, organism-based
[18] = tested on: Plasmodium falciparum; assay: Antimalarial activity against chloroquine sensitive Plasmodium falciparum FCR-3; assay type: functional, organism-based
[19] = tested on: Plasmodium falciparum; assay: Antimalarial activity against chloroquine-sensitive Plasmodium falciparum HB3; assay type: functional, organism-based

CC(=O)CN1C(=O)[C@H](C)[C@@H]2CC[C@@H](C)[C@@H]3CC[C@]4(C)OO[C@]32[C@H]1O4
Ratio IC50 [1]: 3
Ratio IC50 [2]: 3.2

CCN(Cc1cc(C2(C)OOC(c3ccccc3O)OO2)ccc1O)c1ccccc1 (stereo not given)
IC50 [3]: 5.3 µg/mL

C[C@H]1[C@@H](CCN2CCN(c3cccc(C(F)(F)F)c3)CC2)O[C@@H]2O[C@]3(C)CC[C@H]4[C@H](C)CC[C@@H]1[C@@]24OO3
ED90 [4]: < 10 mg/kg

CC12C=CC(=O)CC1OC(c1c[nH]c3ccccc13)OO2 (stereo not given)
IC50 [5]: 1240 nM
IC50 [3]: 1170 nM

COC(=O)/C=C/N1C(=O)[C@H](C)[C@@H]2CC[C@@H](C)[C@@H]3CC[C@]4(C)OO[C@]32[C@H]1O4
Ratio IC50 [1]: 1.2
Ratio IC50 [2]: 2

COc1cc(C2OOC3(C)C=CC(=O)CC3O2)ccc1O (stereo not given)
IC50 [5]: 1240 nM
IC50 [3]: 1060 nM

C[C@H]1[C@@H](CC(O)C(C)(C)C)O[C@@H]2O[C@]3(C)CC[C@H]4[C@H](C)CC[C@@H]1[C@@]24OO3 (stereo not given in full)
Ratio IC50 [1]: 6.8
Ratio IC50 [2]: 5.4

C[C@H]1[C@H](N2CCN(C(=O)c3ccc(F)cc3)CC2)O[C@@H]2O[C@]3(C)CC[C@H]4[C@H](C)CC[C@@H]1[C@@]24OO3
IC50 [6]: 1.5 nM
IC50 [7]: 1.06 nM
IC50 [8]: 0.6 nM
IC50 [9]: 2.1 nM

CN1CCN(C2CCN(C(=O)CC3CCC4(CC3)OOC3(OO4)C4CC5CC(C4)CC3C5)CC2)CC1 (stereo not given)
ED90 ([10]; Plasmodium berghei, ANKA): 4.18 mg/kg
ED50 ([10]; Plasmodium berghei, ANKA, read-out: ED50): 1.33 mg/kg
IC50 [5]: 0.8 nM

C[C@H]1[C@@H](Oc2ccc(C(F)(F)F)cc2)O[C@@H]2O[C@]3(C)CC[C@H]4[C@H](C)CC[C@@H]1[C@@]24OO3
ED50 [11]: 2.12 mg/kg

COC(=O)CC[C@@H](C)[C@H]1CC[C@H]2[C@@H]3CC[C@@H]4CC5(CC[C@]4(C)[C@H]3C[C@H](OC(C)=O)[C@]12C)OOC(C)(C(F)(F)F)O5 (stereo not given in full)
IC50 [12]: > 231 nM

c1cc([C@H]2CC[C@]3(CC2)OOC2(O3)C3CC4CC(C3)CC2C4)ccc1OCCC1CCNCC1 (stereo not given in full)
Activity [13]: <0.01%

COC(=O)CC[C@@H](C)[C@H]1CC[C@H]2[C@@H]3CC[C@@H]4CC5(CC[C@]4(C)[C@H]3C[C@H](OC(C)=O)[C@]12C)OOC(c1ccccc1)(C(F)(F)F)O5 (stereo not given in full)
IC50 [12]: > 231 nM

CCO[C@H]1O[C@@H]2O[C@]3(C)CC[C@H]4[C@H](C)CC[C@@H]([C@H]1C)[C@@]24OO3
ED90 [14]: 6 mg/kg

C[C@@H]1CC[C@H]2[C@@H](C)C(Nc3ccc(C(=O)O)cc3)O[C@@H]3O[C@]4(C)CC[C@@H]1[C@]32OO4 (stereo not given in full)
SD50 [15]: 1.36 mg/kg/day

C[C@H]1[C@H](OC(=O)c2ccc([N+](=O)[O-])cc2)O[C@@H]2O[C@@]3(C)CC[C@H]4[C@H](C)CC[C@@H]1[C@@]24OO3
IC50 [16]: 8.54 nM

CO[C@H]1O[C@@H]2O[C@@]3(C)CC[C@H]4[C@H](C)CC[C@@H]([C@H]1C)[C@@]24OO3
IC50 [17]: 7 nM
ED50 [10]: 10.57 mg/kg
IC50 [7]: 2 nM
ED50 [11]: 6 mg/kg
IC50 [9]: 9 nM

C[C@H]1[C@H](n2cc(-c3ccccc3C(F)(F)F)nn2)O[C@@H]2O[C@]3(C)CC[C@H]4[C@H](C)CC[C@@H]1[C@@]24OO3
IC50 [18]: 4.6 nM

CC1(c2ccccc2)OOC(c2ccccc2)(c2ccccc2)OO1
IC50 [3]: 3.91 µg/mL

CC1(C)CC(O)(COc2ccc([C@H]3CC[C@]4(CC3)OOC3(O4)C4CC5CC(C4)CC3C5)cc2)CC(C)(C)N1 (stereo not given in full)
Activity [13]: <0.01%

C[C@H]1[C@H](n2cc(-c3cccc(Cl)c3)nn2)O[C@@H]2O[C@]3(C)CC[C@H]4[C@H](C)CC[C@@H]1[C@@]24OO3
IC50 [18]: 1.3 nM

CCN(Cc1cc(C2(C)OOC(c3c[nH]c4ccccc34)OO2)ccc1O)c1ccccc1 (stereo not given)
IC50 [3]: 8.19 µg/mL

CCC(O)C[C@H]1O[C@@H]2O[C@]3(C)CC[C@H]4[C@H](C)CC[C@@H]([C@H]1C)[C@@]24OO3 (stereo not given in full)
Ratio IC50 [1]: 4.8
Ratio IC50 [2]: 5.8

C[C@H]1[C@H](N2CCN(S(=O)(=O)c3cccc(C(F)(F)F)c3)CC2)O[C@@H]2O[C@]3(C)CC[C@H]4[C@H](C)CC[C@@H]1[C@@]24OO3
IC50 [8]: 0.4 nM

CNCCO[C@H]1O[C@@H]2O[C@]3(C)CC[C@H]4[C@H](C)CC[C@@H]([C@H]1C)[C@@]24OO3
IC50 [12]: 2.4 nM
IC50 [19]: 2.7 nM

CCN(CC)Cc1ccc(CO[C@H]2O[C@@H]3O[C@]4(C)CC[C@H]5[C@H](C)CC[C@@H]([C@H]2C)[C@@]35OO4)cc1
IC50 [12]: 1.4 nM
IC50 [19]: 3.1 nM

CC(=O)/C=C/N1C(=O)[C@H](C)[C@@H]2CC[C@@H](C)[C@@H]3CC[C@]4(C)OO[C@]32[C@H]1O4
Ratio IC50 [1]: 1.25
Ratio IC50 [2]: 2.54
